Experimental data: patent US20240400560A1, “BICYCLIC HETEROCYCLIC DERIVATIVE HAVING VIRAL GROWTH INHIBITORY ACTIVITY AND PHARMACEUTICAL COMPOSITION CONTAINING SAME” (Shionogi & Co., Ltd., priority 2021, published 2024)
Read-outs that look alike come from different tables or passages of the source.

Assays:
[1] = test system: SARS-CoV-2; assay: Inhibitory activity of cytopathic effect (CPE) in HEK293T/ACE2-TMPRSS2 cells; assay type: cell-based; settings: Severe acute respiratory syndrome coronavirus 2, HEK-293T, 72 h
[2] = molecular target: SARS-CoV-2 3CL protease (Severe acute respiratory syndrome coronavirus 2, UniProt P0DTD1); assay: Inhibitory activity test against SARS-CoV-2 3CL proteases; assay type: biochemical
[3] = HEK293T/ACE2-TMPRSS2 cells, cultured 3 days, CellTiter-Glo 2.0 luminescence, read-out: EC50 (50% SARS-CoV-2 infected cell death inhibitory concentration)
[4] = read-out: IC50 (50% SARS-CoV-2 3CL protease inhibitory concentration)
[5] = 50% SARS-CoV-2 infected cell death inhibitory concentration, HEK293T/ACE2-TMPRSS2 cells, CellTiter-Glo 2.0 after 3 days culture, read-out: EC50
[6] = read-out: EC50 (50% SARS-CoV-2 infected cell death inhibitory concentration)
[7] = IC50 (50% SARS-CoV-2 3CL protease inhibitory concentration)

Compound `[2H]C([2H])([2H])O[C@@H]1CCN(c2cc3c(c(OC)n2)c(=O)n(-c2cnc4cc(F)ccn24)c(=O)n3-c2ccc(F)c(C(F)F)c2)C1` [Compound I-0981] has an EC50 [1, 3] of under 0.1 µM and an IC50 [2, 4] of under 0.1 µM.
Work on `[2H]C([2H])([2H])N1CCc2c(ccc(Cl)c2-c2cc(OC)c3c(=O)n(Cc4ncn(C)n4)c(=O)n(Cc4cc(F)c(F)c(F)c4)c3c2)C1=O` [Compound I-0876] yielded an EC50 [1, 3] of under 0.1 µM and an IC50 [2, 4] of under 0.1 µM.
In the case of `Cn1cnc(Cn2c(=O)c3c4nccnc4c(N4CCCC4)cc3n(Cc3cc(F)c(F)c(F)c3)c2=O)n1` [Compound I-0932], the EC50 [1, 3] is reported as under 0.1 µM and the IC50 [2, 4] is reported as under 0.1 µM.
In the case of `COc1nc2c(=O)n(Cc3ncn(C)n3)c(=O)n(Cc3cc(F)c(F)c(Cl)c3)c2cc1-c1nc(C(=O)NC(C)C)ccc1Cl` [Compound I-0883], the EC50 [1, 5] is reported as 0.0302 µM and the IC50 [2, 4] is reported as 0.0033 µM.
With `COc1nc(NCC(F)(F)F)cc2c1c(=O)n(-c1cnc3cc(F)ccn13)c(=O)n2-c1ccc(F)c(Cl)c1` [Compound I-1041] the EC50 [1, 3] was under 0.1 µM and the IC50 [2, 4] was under 0.1 µM.
`COc1nc2c(=O)n(Cc3ncn(C)n3)c(=O)n(Cc3cc(Cl)ccc3C)c2cc1-c1cc(C#N)ccc1Cl` [Compound I-0717] gave an EC50 [1, 3] of under 0.1 µM and an IC50 [2, 4] of under 0.1 µM.
`COc1nc(-c2cc(C#N)ccc2Cl)cc2c1c(=O)n(-c1cc(C)cnn1)c(=O)n2Cc1cc(F)c(F)c(F)c1` [Compound I-0929] showed an EC50 [1, 3] of under 0.1 µM and an IC50 [2, 4] of under 0.1 µM.
`COc1nc(N2CCC(S(C)(=O)=O)C2)cc2c1c(=O)n(-c1cncc(Cl)c1)c(=O)n2-c1ccc(F)c(Cl)c1` (stereo not drawn) [Compound I-0974] showed an EC50 [1, 3] of under 0.1 µM and an IC50 [2, 4] of under 0.1 µM.
Work on `COc1nc(C(C)C)cc2c1c(=O)n(-c1cnc3cc(F)ccn13)c(=O)n2-c1ccc(F)c(Cl)c1` [Compound I-0976] yielded an EC50 [1, 3] of under 0.1 µM and an IC50 [2, 4] of under 0.1 µM.
For `COc1nc2c(=O)n(Cc3ncn(C)n3)c(=O)n(Cc3cc(F)c(F)c(Cl)c3)c2cc1-c1cc2c(cc1Cl)NC(=O)C2` [Compound I-0700], the EC50 [1, 5] was 0.0245 µM and the IC50 [2, 4] was 0.00092 µM.
With `COc1nc(N2CC[C@@H](O)C2)cc2c1c(=O)n(-c1cnc3cc(F)ccn13)c(=O)n2Cc1cc(F)c(F)c(Cl)c1` [Compound I-0734] the EC50 [1, 3] was under 0.1 µM and the IC50 [2, 4] was under 0.1 µM.
For `COc1nc(N2CCC(O)(C(F)F)C2)cc2c1c(=O)n(-c1cncc(Cl)c1)c(=O)n2-c1ccc(F)c(Cl)c1` (stereo not drawn) [Compound I-1036], the EC50 [1, 3] was under 0.1 µM and the IC50 [2, 4] was under 0.1 µM.
Work on `O=c1c2c(F)cc(N3[C@@H]4CC[C@H]3CNC4)cc2n(Cc2cc(F)c(F)c(Cl)c2)c(=O)n1-c1cnc2ccccn12` [Compound I-0548] yielded an EC50 [1, 6] of under 0.1 µM and an IC50 [2, 7] of under 0.1 µM.
With `COc1nc(N2CC(C)(OC)C2)cc2c1c(=O)n(-c1cnc3cc(F)ccn13)c(=O)n2-c1ccc(F)c(Cl)c1` [Compound I-0762] the EC50 [1, 3] was under 0.1 µM and the IC50 [2, 4] was under 0.1 µM.
`COc1nc(N2CCC(O)(C(F)(F)F)C2)cc2c1c(=O)n(-c1cncc(Cl)c1)c(=O)n2-c1ccc(F)c(Cl)c1` (stereo not drawn) [Compound I-1064] was tested, and the EC50 [1, 3] was under 0.1 µM and the IC50 [2, 4] was under 0.1 µM.
For `COc1c(-c2cc(C#N)ccc2Cl)cc2c(c(=O)n(Cc3ncn(C)n3)c(=O)n2Cc2cc(F)c(F)c(F)c2)[n+]1[O-]` [Compound I-0709], the EC50 [1, 3] was 1 to 10 µM and the IC50 [2, 4] was 0.1 to 1 µM.
Work on `COc1nc2c(=O)n(Cc3ncn(C)n3)c(=O)n(Cc3cc(F)c(F)c(F)c3)c2cc1-c1cc(C#N)ccc1Cl` [Compound I-0699] yielded an EC50 [1, 3] of under 0.1 µM and an IC50 [2, 4] of under 0.1 µM.
For `C=Cc1cc2c(c(OC)n1)c(=O)n(-c1cnc3cc(F)ccn13)c(=O)n2-c1ccc(F)c(Cl)c1` [Compound I-0999], the EC50 [1, 3] was 0.1 to 1 µM and the IC50 [2, 4] was under 0.1 µM.
With `COc1nc(N2[C@@H]3CC[C@H]2CNC3)cc2c1c(=O)n(-c1cnc3cc(Cl)ccn13)c(=O)n2Cc1cc(F)c(F)c(F)c1` [Compound I-0683] the EC50 [1] was 0.0454 µM and the IC50 [2, 7] was 0.0099 µM.
Work on `COc1nc(N2[C@@H]3CC[C@H]2CNC3)cc2c1c(=O)n(-c1cnc3ccccn13)c(=O)n2Cc1cc(F)c(F)c(F)c1` [Compound I-0646] yielded an EC50 [1, 6] of under 0.1 µM and an IC50 [2, 7] of under 0.1 µM.
Work on `CCc1nc(N2CCC(F)(F)C2)cc2c1c(=O)n(-c1cncc(Cl)c1)c(=O)n2-c1ccc(F)c(F)c1` [Compound I-1023] yielded an EC50 [1, 3] of under 0.1 µM and an IC50 [2, 4] of under 0.1 µM.
